From patent publication US20150283120A1, “ANTIBIOTIC METHODS AND COMPOSITIONS FOR BACTERIA INFECTIONS” (THE UNIVERSITY OF CHICAGO, priority 2012, published 2015)
“And” between values parts separate entries of the source, which are not always exact repeats. Equal values may be shown once. “Also recorded” adds a separate entry of the source. Read-outs that look alike come from different tables or passages of the source.

Columns and labels:
MRSA strain 8004-01 = experiment: Checkerboard oxacillin + compound, strain 8004-01; set-up: MIC OX / MIC OX (+) / MIC cmpd alone: unit not given beside the values; conditions: strain 8004-1 (ST239)
hVISA 2275 = experiment: microbe, parasite or virus in culture; format: cell-based, Staphylococcus aureus; conditions: hVISA 2275
Text: (§1) As shown in the analysis of the checkerboard assays (Table 6), gossypol fully potentiated vancomycin (FIC i<0.5) in hVISA, VISA, VRS2 and VRS1. […] Clomiphene partially potentiated vancomycin in hVISA, VISA, and VRS1 and it fully potentiated in strain VRS2.

VRS1 = experiment: microbe, parasite or virus in culture; format: cell-based, Staphylococcus aureus; conditions: VRS1
Text: as §1

VRS2 = experiment: microbe, parasite or virus in culture; format: cell-based, Staphylococcus aureus; conditions: VRS2
Text: as §1

[1] = tested on: MRSA strain USA300 Pvra-lux; format: cell-based, Staphylococcus aureus; conditions: compound 10 μM + oxacillin 2 μg/mL
Outline: (§2)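 Secondary screen: compound at 10 μM plus oxacillin 2 μg/mL, four biological replicates, luminescence read every 15 minutes. RG and RL are OD600 or max LU with compound plus oxacillin over pooled same-plate oxacillin controls; RL <0.8 repressor, >1.2 stimulator, 0.80-1.2 neutral.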

[2] = tested on: vraSR transcription (Pvra::lux); format: cell-based, Staphylococcus aureus
Outline: as §2

diverse MRSA strains = experiment: MIC of oxacillin with a single concentration of compound in multiple MRSA strains; format: cell-based, Staphylococcus aureus
Method: Testing potentiation of oxacillin by compounds in multiple MRSA strains: In order to be considered a synergistic agent in therapy of MRSA infection, it must be effective as a potentiator in diverse MRSA strains. To determine whether the oxacillin potentiators were effective against MRSA strains besides USA300, a single effective concentration of three compounds that were not known as antibiotics—gossypol, pyrvinium and clomiphene—were tested against multiple MRSA genetic backgrounds. Each compound was tested at a single optimal concentration, determined in the checkerboard assays, in combination with various concentrations of oxacillin. The strains included in this panel were from diverse genetic backgrounds as determined by multilocus sequence type (MLST) and contained a variety of SCCmec types. […] The MIC80 was […] for clomiphene, gossypol, and pyrvinium, respectively.

[3] = tested on: MRSA strain USA300-isolate 923; experiment: Checkerboard MIC testing of compounds with oxacillin; format: cell-based, Staphylococcus aureus; conditions: for oxacillin MIC: strain 923, 24 h
vraR transcription = experiment: Tertiary screen: qRT-PCR of vraR in strain 923; format: cell-based, Staphylococcus aureus
[4] = tested on: test strain (923 pPvra-lux); experiment: Primary screen: growth (OD) of test strain with compound, with and without oxacillin; format: cell-based, Staphylococcus aureus; conditions: compound 10 μM, with and without oxacillin 2 μg/mL; OD at 24 h; library screened twice
[5] = tested on: vraSR operon (vra promoter, Pvra::lux); experiment: Primary screen: Pvra-lux luminescence (vraSR induction); format: cell-based, Staphylococcus aureus; conditions: compound 10 μM, oxacillin 2 μg/mL; luminescence at 2 hours; library screened twice
VISA 2283 = experiment: microbe, parasite or virus in culture; format: cell-based, Staphylococcus aureus; conditions: VISA 2283; with vancomycin; listed as Pyr
Text: as §1

strain 11095 = experiment: Checkerboard oxacillin + compound, strain 11095; set-up: MIC OX / MIC OX (+) / MIC cmpd alone: unit not given beside the values; conditions: for FICi: oxacillin + compound
strain 923 [6] = experiment: Oxacillin MIC of strain 923 (assay development)
strain 923 [7] = conditions: strain 923, CLSI guidelines; cited from earlier work
[8] = tested on: vraSR expression (923 Pvra-lux); experiment: Validation of test strain: luminescence as a function of oxacillin concentration; conditions: strain 923 Pvra-lux, luminescence 2 hours after induction
[9] = oxacillin in combination with compound
[10] = Staphylococcus aureus, compound alone, read-out: MIC compound

SMILES: Cc1cc(/C=C/c2ccc3cc(N(C)C)ccc3[n+]2C)c(C)n1-c1ccccc1 [Pyrvinium pamoate, 2-[(E)-2-(2,5-Dimethyl-1-phenylpyrrol-3-yl)ethenyl]-N,N,1-trimethylquinolin-1-ium-6-amine]
- MIC cmpd alone (MRSA strain 8004-01): >4
- MIC cmpd + (MRSA strain 8004-01; compound in combination with oxacillin): >4 µg/mL
- FICi (MRSA strain 8004-01; oxacillin + compound): 7
- MIC OX (+) (MRSA strain 8004-01; [9]): >256
- MIC (hVISA 2275; [10]): 16 µg/mL
- FICi V + compound (hVISA 2275): 0.54
- Van FIC (hVISA 2275): 0.50
- compound FIC (hVISA 2275): 0.04
- fold decrease Van MIC (hVISA 2275): 2 fold
- MIC (in combination) compound+ (hVISA 2275; compound MIC with the indicated Van concentration): 0.56
- Synergy category (hVISA 2275; with vancomycin, listed as Pyr): partial (partially potentiated vancomycin (FIC i>0.5 and <1.0))
- MIC (VRS1; [10]): 2.24 µg/mL
- fold decrease Van MIC (VRS1): 64 fold
- MIC (VRS2; [10]): 1.12 µg/mL
- Synergy category (VRS2; with vancomycin, listed as Pyr): synergistic (fully potentiated vancomycin (FIC i<0.5))
- OD600 category [1]: inhibited (of <0.8 were classified as oxacillin synergists or potentiators)
- RG avg (relative growth) ([1]; ratio of OD600 to oxacillin alone, four runs): 0.39
- Effect on vraSR transcription ([2]; compound 10 μM + oxacillin 2 μg/mL): repress (“vraSR repressors” (mean RL of <0.8))
- RL avg (relative luminescence) ([2]; compound 10 μM + oxacillin 2 μg/mL, ratio of LU to oxacillin alone, four runs): 0.31
- MIC 80 of Ox in presence of compound (diverse MRSA strains; panel of 11 MRSA isolates, clom 3.8 μM, gos 15 μM, pyr 0.5 μM): 32 µg/mL
- MIC50 of oxacillin in the presence of compound (diverse MRSA strains; panel of strains): 1 µg/mL
- MIC80 of oxacillin in the presence of compound (diverse MRSA strains; panel of strains): 0.032 µg/mL
- fold decrease in the oxacillin MIC50 (diverse MRSA strains; panel of strains, with compound against oxacillin alone): 16 fold
- oxacillin MIC ([3]; compound 0.25 μM): 16 µg/mL
- oxacillin MIC ([3]; compound 0.5 μM): 4 µg/mL
- oxacillin MIC ([3]; compound 1 μM): 2 µg/mL
- change of the MIC of oxacillin with compound concentration ([3]; strain 923, checkerboard): dose dependent decrease
- bactericidal effect of oxacillin (MBC, >99.9% killing) ([3]; strain 923, wells with FICi≦0.5 spotted on TSA): increased the bactericidal effect of oxacillin
- classification of lux screen result against qRT-PCR (true/false repressor or stimulator) (vraR transcription; in the presence of oxacillin): true vraSR expression repressors
- Effect on vraSR Transcription: With oxacillin (vraR transcription; qRT-PCR of vraR, compound 10 μM + oxacillin 2 μg/mL): vraR inhibitors; also recorded: repress
- primary screen category by effect on growth of MRSA strain 923 [4]: strong growth inhibitors on their own
- primary screen category by effect on vraSR (Pvra-lux luminescence) [5]: repressed Pvra::lux in both primary screens
- Synergy category (VISA 2283): non syn
- FIC Compound (strain 11095): 0.25
- FIC Ox (strain 11095): .0078
- MIC cmpd alone (strain 11095): 16
- fold decrease of the oxacillin MIC (strain 11095): 128 fold
- FICi (strain 11095): 0.26
- FICi (strain 11095; listed as Pyr): .26
- MIC OX (+) (strain 11095; [9]): 4

SMILES: Cc1onc(-c2ccccc2)c1C(=O)N[C@@H]1C(=O)N2[C@@H]1SC(C)(C)[C@@H]2C(=O)O [oxacillin]
- MIC OX (MRSA strain 8004-01; oxacillin alone, listed as OX): 512 and >256
- average LU of pooled positive controls ([2]; grown in the presence of oxacillin 2 μg/mL, all runs of the secondary assay): 144 (SD+/−16) LU
- induction of Pvra::lux ([2]; oxacillin 2 μg/mL against no oxacillin): 2.7 fold
- MIC (diverse MRSA strains; Staphylococcus aureus, MRSA, in the absence of compound, range over strains, read-out: MICs of oxacillin for the strains of the panel): 2 to 256 µg/mL
- MIC (diverse MRSA strains; Staphylococcus aureus, MRSA, isolate Q2461 (SCCmec VT, ST 59), Ox alone, read-out: MIC Ox): 8 µg/mL
- MIC50 (diverse MRSA strains; Staphylococcus aureus, MRSA, panel of strains, absence of compound, read-out: MIC50 of oxacillin): 16 µg/mL
- MIC (diverse MRSA strains; Staphylococcus aureus, isolate 923 (SCCmec IV, ST 8), Ox alone, read-out: MIC Ox): 16 µg/mL
- MIC (diverse MRSA strains; Staphylococcus aureus, isolate 1176 (SCCmec II, ST 231), Ox alone, read-out: MIC Ox): 32 µg/mL
- MIC (diverse MRSA strains; Staphylococcus aureus, isolate 2169 (SCCmec IV, ST 72), Ox alone, read-out: MIC Ox): 16 µg/mL
- MIC (diverse MRSA strains; Staphylococcus aureus, isolate 8004-01 (SCCmec III, ST 239), Ox alone, read-out: MIC Ox): 256 µg/mL
- MIC (diverse MRSA strains; Staphylococcus aureus, isolate 8010-01 (SCCmec IV, ST 8), Ox alone, read-out: MIC Ox): 8 µg/mL
- MIC (diverse MRSA strains; Staphylococcus aureus, isolate 8227-01 (SCCmec IV, ST 87), Ox alone, read-out: MIC Ox): 4 µg/mL
- MIC (diverse MRSA strains; Staphylococcus aureus, isolate 11095 (SCCmec II, ST 105), Ox alone, read-out: MIC Ox): 128 µg/mL
- MIC (diverse MRSA strains; Staphylococcus aureus, isolate 13113 (SCCmec II, ST 5), Ox alone, read-out: MIC Ox): 8 µg/mL
- MIC (diverse MRSA strains; Staphylococcus aureus, isolate 13354 (SCCmec IV, ST 5), Ox alone, read-out: MIC Ox): 8 µg/mL
- MIC (diverse MRSA strains; Staphylococcus aureus, isolate 14315 (SCCmec IV, ST 1), Ox alone, read-out: MIC Ox): 16 µg/mL
- MIC50 (diverse MRSA strains; Staphylococcus aureus, panel of 11 MRSA isolates, Ox alone, read-out: MIC 50 of Ox): 16 µg/mL
- MIC80 (diverse MRSA strains; Staphylococcus aureus, panel of 11 MRSA isolates, Ox alone, read-out: MIC 80 of Ox): 128 µg/mL
- MIC (strain 923 [6]; Staphylococcus aureus, 923, read-out: MIC of oxacillin, 923 containing pPvra-lux, 96-well format): 5 µg/mL
- MIC (strain 923 [6]; Staphylococcus aureus, 923, read-out: MIC of oxacillin, strain 923, 96-well format): 8 µg/mL
- MIC ([3]; Staphylococcus aureus, strain 923, oxacillin alone (Men 0 μM)): 32 µg/mL
- MIC OX (strain 11095; oxacillin alone): 512
- 24-h oxacillin MIC (strain 923 [7]): 16 to 32 µg/mL
- minimum concentration sufficient for maximal vraSR expression [8]: 2 µg/mL
